Values joined by “and” are separate entries in the source; they are usually repeats but may differ in a detail not shown here. Equal entries are not always repeated. Inconclusive results and toxic doses are left out.

In the assay the test system is BDF1 mice, P388 leukemia ip, median survival T/C. As to the kind of experiment: NCI In Vivo Anticancer Drug Screen. Data for tumor model P388 Leukemia (intraperitoneal) in B6D2F1 (BDF1) mice. The settings on record: endpoint: median survival time, higher = longer survival. In short, it runs like this:
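Mice carrying the transplantable tumour receive compound or vehicle. Survival is followed in each arm, and the treated measure is divided by the vehicle measure.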

Setting [1] is: dose: 100.0 mg/kg/injection, schedule: Q04DX003 (ip), vehicle: saline sonified.
The mark [2] stands for this setting: dose: 200.0 mg/kg/injection, schedule: Q04DX003 (ip), vehicle: saline sonified.
The mark [3] stands for this setting: dose: 75.0 mg/kg/injection, schedule: Q01DX009 (ip), vehicle: saline with Tween-80.
Setting [4] is: dose: 100.0 mg/kg/injection, schedule: Q04DX003 (ip), vehicle: saline with Tween-80.
Setting [5] is: dose: 150.0 mg/kg/injection, schedule: Q01DX009 (ip), vehicle: saline with Tween-80.
Setting [6] is: dose: 200.0 mg/kg/injection, schedule: Q04DX003 (ip), vehicle: saline with Tween-80.
Where [7] appears, read: dose: 400.0 mg/kg/injection, schedule: Q04DX003 (ip), vehicle: saline with Tween-80.
Setting [8] is: dose: 200.0 mg/kg/injection, schedule: Q04DX003 (ip), vehicle: saline.
Where [9] appears, read: dose: 400.0 mg/kg/injection, schedule: Q04DX003 (ip), vehicle: saline.

Consider `Oc1ccccc1C=NC1CCCCC1.Oc1ccccc1C=NC1CCCCC1.[Ni+2]`, for which the T/C is 109 % of control (dose: 50.0 mg/kg/injection, schedule: Q04DX003 (ip), vehicle: saline sonified); 109 % of control under setting [1]; 100 % of control under setting [2].

Regarding `N#[N+]c1cnc([O-])[nH]c1=O`, the T/C by setting is: (dose: 1.25 mg/kg/injection, schedule: Q01DX010 (ip), vehicle: saline) 175 % of control; (dose: 2.5 mg/kg/injection, schedule: Q01DX010 (ip), vehicle: saline) 185 % of control; (dose: 5.0 mg/kg/injection, schedule: Q01DX010 (ip), vehicle: saline) 172 % of control and 210 % of control; (dose: 10.0 mg/kg/injection, schedule: Q01DX010 (ip), vehicle: saline) 240 % of control and 177 % of control.

In the case of `O=C(O)CC/C(=N/OCc1cc2c(cc1Cl)OCO2)C(=O)O`, the T/C was 100 % of control under setting [1]; 100 % of control under setting [2]; 109 % of control (dose: 400.0 mg/kg/injection, schedule: Q04DX003 (ip), vehicle: saline sonified).

As to `CC(=O)OCC(OC(C)=O)C(OC(C)=O)C(OC(C)=O)C(C#N)OC(C)=O` (configuration not stated), the T/C under setting [3] was 100 % of control; the T/C (dose: 100.0 mg/kg/injection, schedule: Q01DX009 (ip), vehicle: saline with Tween-80) is 105 % of control; the T/C under setting [4] is 100 % of control; the T/C under setting [5] is 100 % of control; the T/C (dose: 200.0 mg/kg/injection, schedule: Q01DX009 (ip), vehicle: saline with Tween-80) is 120 % of control; the T/C under setting [6] was 100 % of control. Also, the T/C under setting [7] is 100 % of control.

Take `COc1cc(C=O)ccc1OCc1ccccc1`: the T/C by setting is: (dose: 1.0 mg/kg/injection, schedule: Q01DX009 (ip), vehicle: saline with Tween-80) 109 % of control; (dose: 2.0 mg/kg/injection, schedule: Q01DX009 (ip), vehicle: saline with Tween-80) 104 % of control; (dose: 4.0 mg/kg/injection, schedule: Q01DX009 (ip), vehicle: saline with Tween-80) 104 % of control; (dose: 8.0 mg/kg/injection, schedule: Q01DX009 (ip), vehicle: saline with Tween-80) 92 % of control; under setting [4], 95 % of control; under setting [6], 109 % of control. In addition, the T/C under setting [7] is 109 % of control.

For the compound `CCOc1ccc2nc3cc(N)ccc3c(N)c2c1`, the T/C was 118 % of control (dose: 44.0 mg/kg/injection, schedule: Q04DX003 (ip), vehicle: saline); 118 % of control (dose: 66.0 mg/kg/injection, schedule: Q04DX003 (ip), vehicle: saline); 118 % of control (dose: 100.0 mg/kg/injection, schedule: Q04DX003 (ip), vehicle: saline); 117 % of control under setting [8]; 86 % of control under setting [9].

For the compound `C(=C/c1ccc(/C=C/c2ccccc2)cc1)/c1ccccc1`, the T/C was 100 % of control (dose: 65.0 mg/kg/injection, schedule: Q01DX009 (ip), vehicle: Klucel (hydroxypropylcellulose) (HPC)); 111 % of control (dose: 66.7 mg/kg/injection, schedule: Q01DX009 (ip), vehicle: Klucel (hydroxypropylcellulose) (HPC)); 94 % of control and 95 % of control (dose: 100.0 mg/kg/injection, schedule: Q01DX009 (ip), vehicle: Klucel (hydroxypropylcellulose) (HPC)); 90 % of control (dose: 100.0 mg/kg/injection, schedule: Q04DX003 (ip), vehicle: Klucel (hydroxypropylcellulose) (HPC)); 100 % of control and 116 % of control (dose: 150.0 mg/kg/injection, schedule: Q01DX009 (ip), vehicle: Klucel (hydroxypropylcellulose) (HPC)); 110 % of control (dose: 200.0 mg/kg/injection, schedule: Q04DX003 (ip), vehicle: Klucel (hydroxypropylcellulose) (HPC)). The T/C was 113 % of control (dose: 400.0 mg/kg/injection, schedule: Q01DX009 (ip), vehicle: Klucel (hydroxypropylcellulose) (HPC)) and 105 % of control (dose: 400.0 mg/kg/injection, schedule: Q04DX003 (ip), vehicle: Klucel (hydroxypropylcellulose) (HPC)).

For `O=C(NCc1cnccn1)c1ccccc1Cl`, the T/C was 92 % of control under setting [4], 104 % of control under setting [6] and 100 % of control under setting [7].

Turning to `COc1cc2c(c(OC)c1OC)-c1ccc(OC)c(=O)cc1[C@@H](NC=O)CC2`, the T/C reads like this: (dose: 0.05 mg/kg/injection, schedule: Q01DX009 (ip), vehicle: Klucel (hydroxypropylcellulose) (HPC)) 120 % of control; (dose: 0.09 mg/kg/injection, schedule: Q01DX009 (ip), vehicle: Klucel (hydroxypropylcellulose) (HPC)) 160 % of control; (dose: 0.19 mg/kg/injection, schedule: Q01DX009 (ip), vehicle: Klucel (hydroxypropylcellulose) (HPC)) 160 % of control; (dose: 0.37 mg/kg/injection, schedule: Q01DX010 (ip), vehicle: saline) 154 % of control; (dose: 0.38 mg/kg/injection, schedule: Q01DX009 (ip), vehicle: Klucel (hydroxypropylcellulose) (HPC)) 190 % of control; (dose: 0.38 mg/kg/injection, schedule: Q01DX010 (ip), vehicle: saline) 158 % of control. Further, the T/C (dose: 0.75 mg/kg/injection, schedule: Q01DX009 (ip), vehicle: Klucel (hydroxypropylcellulose) (HPC)) was 100 % of control; the T/C (dose: 0.75 mg/kg/injection, schedule: Q01DX010 (ip), vehicle: saline) was 170 % of control; the T/C (dose: 6.3 micrograms/kg/injection, schedule: Q01DX010 (ip), vehicle: saline) was 100 % of control; the T/C (dose: 12.0 micrograms/kg/injection, schedule: Q01DX009 (ip), vehicle: Klucel (hydroxypropylcellulose) (HPC)) is 100 % of control; the T/C (dose: 12.5 micrograms/kg/injection, schedule: Q01DX010 (ip), vehicle: saline) was 88 % of control; the T/C (dose: 23.0 micrograms/kg/injection, schedule: Q01DX009 (ip), vehicle: Klucel (hydroxypropylcellulose) (HPC)) is 120 % of control. Further, the T/C (dose: 25.0 micrograms/kg/injection, schedule: Q01DX010 (ip), vehicle: saline) is 111 % of control and the T/C (dose: 50.0 micrograms/kg/injection, schedule: Q01DX010 (ip), vehicle: saline) was 111 % of control.

As for `O=C(O)c1cc(Br)ccc1OCc1ccc(Cl)cc1`, the T/C under setting [4] is 106 % of control, the T/C under setting [6] was 99 % of control and the T/C under setting [7] is 110 % of control.

Regarding `CN=C1c2ccccc2C2(c3ccccc3)C1N2C` (configuration not stated), the T/C by setting is: (dose: 37.5 mg/kg/injection, schedule: Q01DX009 (ip), vehicle: saline with Tween-80) 104 % of control; under setting [3], 109 % of control; under setting [5], 118 % of control.

`COc1ccc(CN(C(C)=O)c2cc(C)c([N+](=O)[O-])cc2OC)cc1OC`: the T/C is 103 % of control (dose: 25.0 mg/kg/injection, schedule: Q01DX009 (ip), vehicle: saline); 87 % of control and 107 % of control (dose: 25.0 mg/kg/injection, schedule: Q04DX003 (ip), vehicle: saline); 87 % of control (dose: 50.0 mg/kg/injection, schedule: Q01DX009 (ip), vehicle: saline); 88 % of control and 107 % of control (dose: 50.0 mg/kg/injection, schedule: Q04DX003 (ip), vehicle: saline); 111 % of control (dose: 100.0 mg/kg/injection, schedule: Q01DX009 (ip), vehicle: saline); 106 % of control (dose: 150.0 mg/kg/injection, schedule: Q04DX003 (ip), vehicle: saline). Besides, the T/C reads like this: (dose: 200.0 mg/kg/injection, schedule: Q01DX009 (ip), vehicle: saline) 108 % of control; under setting [8], 99 % of control and 107 % of control; (dose: 300.0 mg/kg/injection, schedule: Q04DX003 (ip), vehicle: saline) 114 % of control; (dose: 400.0 mg/kg/injection, schedule: Q01DX009 (ip), vehicle: saline) 100 % of control; under setting [9], 100 % of control.

On to `O=[N+]([O-])c1ccc(S/N=C\c2ccccc2)c([N+](=O)[O-])c1`, for which the T/C was 107 % of control (dose: 12.5 mg/kg/injection, schedule: Q01DX009 (ip), vehicle: saline with Tween-80); 105 % of control (dose: 25.0 mg/kg/injection, schedule: Q01DX009 (ip), vehicle: saline with Tween-80); 105 % of control (dose: 50.0 mg/kg/injection, schedule: Q01DX009 (ip), vehicle: saline with Tween-80).

Take `O=C1CCC23/C=C/C(=O)NCCCCNCCCNC(=O)/C=C/c4ccc(c2c4)OC3C1` (configuration not stated): the T/C reads like this: (dose: 50.0 mg/kg/injection, schedule: Q04DX003 (ip), vehicle: saline with Tween-80) 105 % of control; under setting [4], 105 % of control; under setting [6], 105 % of control.
